Measurements as given in US12091425B2 (AMGEN INC., priority 2016, dated 2024).

Columns and labels:
[1] = molecular target: T1, Mcl-1/Bim interaction, recombinant human Mcl-1 (171-327) (Homo sapiens, UniProt Q07820); experiment: Cell free Mcl-1: Bim Affinity Assay (Mcl-1 HTRF); assay type: binding
T1 construct: made in house
Outline: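 Displacement of biotinylated Bim 51-76 peptide is followed by TR-FRET. Incubation runs overnight. Duplicate points are fitted with a four-parameter sigmoid to yield IC50.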

[2] = test system: OPM-2 human multiple myeloma cell line; experiment: Cell Viability Assay (OPM-2 10 FBS); assay type: cell-based; details: OPM-2 cells, CellTiter-Glo
Outline: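 ATP-based luminescence (CellTiter-Glo) measured after a 16 h compound treatment of OPM-2 cells seeded at 3000 cells/well in 10% FBS medium. IC50 values derived by 4-parameter logistic fitting of serial dilutions.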

[3] = TR-FRET, 0.1 nM Mcl-1 (171-327), 0.05 nM biotin-Bim (51-76)
[4] = Homo sapiens, OPM-2, 16 h, 16 h
[5] = Homo sapiens, OPM-2, 16 h, 16 h incubation
[6] = cell free Mcl-1:Bim TR-FRET, recombinant human Mcl-1 (171-327)

T1 sequence (Q07820 171-327): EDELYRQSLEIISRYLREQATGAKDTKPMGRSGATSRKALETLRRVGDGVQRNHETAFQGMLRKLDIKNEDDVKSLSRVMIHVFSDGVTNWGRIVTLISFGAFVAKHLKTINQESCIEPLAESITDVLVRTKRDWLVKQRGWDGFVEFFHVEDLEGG

Structure (SMILES) | IC50 [1, 3] [nM] | IC50 [2, 4] [nM] | IC50 ([2]; 16 h) [nM] | IC50 [1, 6] [nM] | other results
C[C@@H]1CC/C=C/[C@H](OCCN2CCOCC2)[C@@H]2CC[C@H]2CN2C[C@@]3(CCCc4cc(Cl)ccc43)COc3ccc(cc32)C(=O)NS1(=O)=O [Example 418, (1S,3′R,6′R,7′S,8′E,12′R)-6-chloro-12′-methyl-7′-(2-(4-morpholinyl)ethoxy)-3,4-dihydro-2H,15′H-spiro[naphthalene-1,22′-[20]oxa[13]thia[1,14]diazatetracyclo[14.7.2.0^3,6.0^19,24]pentacosa [8,16,18,24]tetraen]-15′-one 13′,13′-dioxide] | 0.275 | 111 |  |  | 
CNC(=O)[C@@H](OC)[C@@H]1/C=C/[C@@H]2CC[C@H]2CN2C[C@@]3(CCCc4cc(Cl)ccc43)COc3ccc(cc32)C(=O)NS(=O)(=O)[C@H](C)[C@@H](C)C1.CNC(=O)[C@H](OC)[C@@H]1/C=C/[C@@H]2CC[C@H]2CN2C[C@@]3(CCCc4cc(Cl)ccc43)COc3ccc(cc32)C(=O)NS(=O)(=O)[C@H](C)[C@@H](C)C1 (mixture of isomers) [Example 362] | 0.639 |  | 476 |  | 
CC[C@@H]1CC/C=C/[C@H](OCCC(=O)N2CCOCC2)[C@@H]2CC[C@H]2CN2C[C@@]3(CCCc4cc(Cl)ccc43)COc3ccc(cc32)C(=O)NS1(=O)=O [Example 1011, (1S,3′R,6′R,7′S,8′E,12′R)-6-chloro-12′-ethyl-7′-(3-(4-morpholinyl)-3-oxopropoxy)-3,4-dihydro-2H,15′H-spiro[naphthalene-1,22′-[20]oxa[13]thia[1,14]diazatetracyclo[14.7.2.0^3,6.0^19,24]pentacosa [8,16,18,24]tetraen]-15′-one 13′,13′-dioxide] | 0.347 |  |  |  | IC50 [2, 5]: 524 nM
COC(=O)[C@@H]1CC/C=C/[C@H](O)[C@@H]2CC[C@H]2CN2C[C@@]3(CCCc4cc(Cl)ccc43)COc3ccc(cc32)C(=O)NS1(=O)=O (single isomer, unassigned) [Example 160] | 0.397 |  | 5300 |  | 
O=C1NS(=O)(=O)NCCC/C=C/[C@H](O)[C@@H]2CC[C@H]2CN2C[C@@]3(CCCc4cc(Cl)ccc43)COc3ccc1cc32 [Example 660, (1S,3′R,6′R,7′S,8′E)-6-chloro-7′-hydroxy-3,4-dihydro-2H,16′H-spiro[naphthalene-1,23′-[21]oxa[14]thia[1,13,15]triazatetracyclo[15.7.2.0^3,6.0^20,25]hexacosa[8,17,19,25]tetraen]-16′-one 14′,14′-dioxide] |  | 416 |  | 0.376 | 
N#CCC[C@H]1CC/C=C/[C@H](O)[C@@H]2CC[C@H]2CN2C[C@@]3(CCCc4cc(Cl)ccc43)COc3ccc(cc32)C(=O)NS1(=O)=O (single isomer, unassigned) [Example 614] |  |  | 8070 | 1.13 | 
COCCOCC[C@@H]1[C@@H](C)C/C=C/[C@H](O)[C@@H]2CC[C@H]2CN2C[C@@]3(CCCc4cc(Cl)ccc43)COc3ccc(cc32)C(=O)NS1(=O)=O (single isomer, unassigned) [Example 399] | 0.239 |  | 165 |  | 
CC1CC(=O)N(C)CC2CCC2CN2CC3(CCCc4cc(Cl)ccc43)COc3ccc(cc32)C(=O)NS(=O)(=O)C1C (single isomer, unassigned) [Example 152] | 19.6 | 29200 |  |  | 
O=C1NS(=O)(=O)[C@H]2CCCC[C@@H]2CCC[C@H](O)[C@@H]2CC[C@H]2CN2C[C@@]3(CCCc4cc(Cl)ccc43)COc3ccc1cc32 (single isomer, unassigned) [Example 334] | 6.92 |  | 2660 |  | 
O=C1NS(=O)(=O)CCC/C=C/[C@@H](O)[C@@H]2CC[C@H]2CN2C[C@@]3(CCCc4cc(Cl)ccc43)COc3ccc1cc32 [Example 952, (1S,3′R,6′R,7′R,8′E)-6-chloro-7′-hydroxy-3,4-dihydro-2H,15′H-spiro[naphthalene-1,22′-[20]oxa[13]thia[1,14]diazatetracyclo[14.7.2.0^3,6.0^19,24]pentacosa [8,16,18,24]tetraen]-15′-one 13′,13′-dioxide] | 1.28 |  |  |  | IC50 ([2]; Homo sapiens, 16 h incubation): 6380 nM
CC1CC=CC(O)C2CCC2CN2CC3(CCCc4cc(Cl)ccc43)COc3ccc(cc32)C(=O)NS(=O)(=O)C1Cc1ccccc1 (single isomer, unassigned) [Example 648] |  | 154 |  | 1.45 | 
C[C@@H]1[C@@H](C)C[C@H](CC(=O)N(C)C)/C=C/[C@@H]2CC[C@H]2CN2C[C@@]3(CCCc4cc(Cl)ccc43)COc3ccc(cc32)C(=O)NS1(=O)=O [Example 1072, 2-((1S,3′R,6′S,7′E,9′R,11′S,12′R)-6-chloro-11′,12′-dimethyl-13′,13′-dioxido-15′-oxo-3,4-dihydro-2H-spiro[naphthalene-1,22′-[20]oxa[13]thia[1,14]diazatetracyclo[14.7.2.0^3,6.0^19,24]pentacosa [7,16,18,24]tetraen]-9′-yl)-N,N-dimethylacetamide] | 1.36 |  |  |  | IC50 [2, 5]: 1510 nM
COCC[C@@H]1[C@@H](C)C/C=C\[C@H](O)[C@@H]2CC[C@H]2CN2C[C@@]3(CCCc4cc(Cl)ccc43)COc3ccc(cc32)C(=O)NS1(=O)=O (single isomer, unassigned) [Example 394] | 1.26 |  | 1250 |  | 
CC(C)(O)C[C@@H]1CC/C=C/[C@H](O)[C@@H]2CC[C@H]2CN2C[C@@]3(CCCc4cc(Cl)ccc43)COc3ccc(cc32)C(=O)NS1(=O)=O (single isomer, unassigned) [Example 559] |  |  | 4420 | 0.598 | 
C[C@@H]1[C@@H](C)C/C=C/[C@H](OCCN2CC(F)C2)[C@@H]2CC[C@H]2CN2C[C@@]3(CCCc4cc(Cl)ccc43)COc3ccc(cc32)C(=O)NS1(=O)=O [Example 532, (1S,3′R,6′R,7′S,8′E,11′S,12′R)-6-chloro-7′-(2-(3-fluoro-1-azetidinyl)ethoxy)-11′,12′-dimethyl-3,4-dihydro-2H,15′H-spiro[naphthalene-1,22′-[20]oxa[13]thia[1,14]diazatetracyclo[14.7.2.0^3,6.0^19,24]pentacosa [8,16,18,24]tetraen]-15′-one 13′,13′-dioxide] |  | 156 |  | 0.427 | 
COCCO[C@H]1/C=C/C[C@@H]2CC[C@H]2S(=O)(=O)NC(=O)c2ccc3c(c2)N(C[C@@H]2CC[C@H]21)C[C@@]1(CCCc2cc(Cl)ccc21)CO3 [Example 93, (1S,3′R,6′R,7′S,8′E,11′S,14′R)-6-chloro-7′-(2-methoxyethoxy)-3,4-dihydro-2H,17′H-spiro[naphthalene-1,24′-[22]oxa[15]thia[1,16]diazapentacyclo[16.7.2.0^3,6.0^11,14.0^21,26]heptacosa[8,18,20,26]tetraen]-17′-one 15′,15′-dioxide] | 0.494 | 402 |  |  | 
CC[C@@H]1CC/C=C/[C@H](OC(N)=O)[C@@H]2CC[C@H]2CN2C[C@@]3(CCCc4cc(Cl)ccc43)COc3ccc(cc32)C(=O)NS1(=O)=O [Example 610, (1S,3′R,6′R,7′S,8′E,12′R)-6-chloro-12′-ethyl-13′,13′-dioxido-15′-oxo-3,4-dihydro-2H-spiro[naphthalene-1,22′-[20]oxa[13]thia[1,14]diazatetracyclo[14.7.2.0^3,6.0^19,24]pentacosa [8,16,18,24]tetraen]-7′-yl carbamate] |  | 1140 |  | 0.923 | 
O=C1NS(=O)(=O)[C@@H]2CCOC[C@H]2C/C=C/[C@H](O)[C@@H]2CC[C@H]2CN2C[C@@]3(CCCc4cc(Cl)ccc43)COc3ccc1cc32 (single isomer, unassigned) [Example 318] | 0.273 | 430 |  |  | 
